From the supplement of paper PMC10307832

Assays:
Experiment in all cases: relative viability (nuclei count vs DMSO), 5 days (fraction); higher = more cells survive
[1] = compound: N[C@@H]1CCCN(c2c(/C=C3\SC(=O)NC3=O)cccc2-c2ccccc2)C1 [AZD1208] + O=C(CCCCCCC(=O)Nc1ccccc1)NO [Vorinostat] (partner 1 µM)
How it was run: (§1)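 Relative viability is defined as nuclei in treated wells over nuclei in vehicle wells. Duplicate plates were run and medians reported. Lung cancer cell lines in 1536-well plates were dosed by pin tool one day after seeding, with one drug or with a fixed anchor-drug dose plus five library-drug doses (not always all listed) in √10 steps, and nuclei were counted after 5 days.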

[2] = compound: N[C@@H]1CCCN(c2c(/C=C3\SC(=O)NC3=O)cccc2-c2ccccc2)C1 [AZD1208] + Cc1nc(Nc2ncc(C(=O)Nc3c(C)cccc3Cl)s2)cc(N2CCN(CCO)CC2)n1 [Dasatinib] (partner 0.075 µM)
How it was run: as §1

[3] = compound: CN1CCN(CC1)C2=CC(=C(C=C2)NC3=NC(=C(S3)C(=O)C4=C(C=CC=C4Cl)Cl)N)OC [XMD14-99] + O=C(CCCCCCC(=O)Nc1ccccc1)NO [Vorinostat] (partner 1 µM)
How it was run: as §1

[4] = compound: N[C@@H]1CCCN(c2c(/C=C3\SC(=O)NC3=O)cccc2-c2ccccc2)C1 [AZD1208] + Nc1ncn([C@H]2C[C@H](O)[C@@H](CO)O2)c(=O)n1 [Decitabine] (partner 2 µM)
How it was run: as §1

NCI-H2228 was tested, and the relative viability ([1]; first compound 0.08 µM) was 0.647, the relative viability ([1]; first compound 0.253 µM) was 0.624 and the relative viability ([1]; first compound 0.8 µM) was 0.793. For the same cell line, the relative viability ([1]; first compound 2.53 µM) was 0.448, the relative viability ([1]; first compound 8 µM) was 0.464 and the relative viability ([2]; first compound 0.08 µM) was 0.476. For the same cell line, the relative viability ([2]; first compound 0.253 µM) was 0.521, the relative viability ([2]; first compound 0.8 µM) was 0.398 and the relative viability ([2]; first compound 2.53 µM) was 0.43. It also gave a relative viability ([2]; first compound 8 µM) of 0.342, a relative viability ([3]; first compound 0.08 µM) of 0.719 and a relative viability ([3]; first compound 0.8 µM) of 0.683. It also gave a relative viability ([3]; first compound 2.53 µM) of 0.727 and a relative viability ([3]; first compound 8 µM) of 0.33.

For NCI-H322M, the relative viability ([4]; first compound 0.08 µM) was 0.669, the relative viability ([4]; first compound 0.253 µM) was 0.659 and the relative viability ([4]; first compound 2.53 µM) was 0.669. It also gave a relative viability ([4]; first compound 8 µM) of 0.713, a relative viability ([1]; first compound 0.08 µM) of 0.934 and a relative viability ([1]; first compound 0.253 µM) of 0.868. The relative viability ([1]; first compound 2.53 µM) was 0.837, the relative viability ([1]; first compound 8 µM) was 0.821 and the relative viability ([2]; first compound 0.08 µM) was 0.261. It also gave a relative viability ([2]; first compound 0.253 µM) of 0.235, a relative viability ([2]; first compound 0.8 µM) of 0.23 and a relative viability ([2]; first compound 2.53 µM) of 0.224. It also gave a relative viability ([2]; first compound 8 µM) of 0.228, a relative viability ([3]; first compound 0.08 µM) of 0.862 and a relative viability ([3]; first compound 0.8 µM) of 0.965. The relative viability ([3]; first compound 2.53 µM) was 0.852 and the relative viability ([3]; first compound 8 µM) was 0.746.

With NCI-H1975 the relative viability ([4]; first compound 0.08 µM) was 0.356, the relative viability ([4]; first compound 0.253 µM) was 0.412 and the relative viability ([4]; first compound 0.8 µM) was 0.357. For the same cell line, the relative viability ([4]; first compound 2.53 µM) was 0.377, the relative viability ([4]; first compound 8 µM) was 0.284 and the relative viability ([1]; first compound 0.08 µM) was 0.708. The relative viability ([1]; first compound 0.253 µM) was 0.799, the relative viability ([1]; first compound 0.8 µM) was 0.705 and the relative viability ([1]; first compound 2.53 µM) was 0.735. For the same cell line, the relative viability ([1]; first compound 8 µM) was 0.767, the relative viability ([2]; first compound 0.08 µM) was 0.388 and the relative viability ([2]; first compound 0.253 µM) was 0.363. The relative viability ([2]; first compound 0.8 µM) was 0.36, the relative viability ([2]; first compound 2.53 µM) was 0.361 and the relative viability ([2]; first compound 8 µM) was 0.381. It also gave a relative viability ([3]; first compound 0.08 µM) of 0.675, a relative viability ([3]; first compound 0.8 µM) of 0.673 and a relative viability ([3]; first compound 2.53 µM) of 0.612. It also gave a relative viability ([3]; first compound 8 µM) of 0.475.

Work on NCI-H1944 yielded a relative viability ([4]; first compound 0.08 µM) of 0.42, a relative viability ([4]; first compound 0.253 µM) of 0.437 and a relative viability ([4]; first compound 0.8 µM) of 0.467. It also gave a relative viability ([4]; first compound 2.53 µM) of 0.355, a relative viability ([4]; first compound 8 µM) of 0.372 and a relative viability ([1]; first compound 0.08 µM) of 0.596. For the same cell line, the relative viability ([1]; first compound 0.253 µM) was 0.665, the relative viability ([1]; first compound 0.8 µM) was 0.618 and the relative viability ([1]; first compound 2.53 µM) was 0.468. For the same cell line, the relative viability ([1]; first compound 8 µM) was 0.379, the relative viability ([2]; first compound 0.08 µM) was 0.196 and the relative viability ([2]; first compound 0.253 µM) was 0.178. The relative viability ([2]; first compound 0.8 µM) was 0.175, the relative viability ([2]; first compound 2.53 µM) was 0.193 and the relative viability ([2]; first compound 8 µM) was 0.16. For the same cell line, the relative viability ([3]; first compound 0.08 µM) was 0.547, the relative viability ([3]; first compound 0.8 µM) was 0.586 and the relative viability ([3]; first compound 2.53 µM) was 0.486. The relative viability ([3]; first compound 8 µM) was 0.449.

LU99A was tested, and the relative viability ([4]; first compound 0.08 µM) was 0.991, the relative viability ([4]; first compound 0.253 µM) was 0.899 and the relative viability ([4]; first compound 0.8 µM) was 0.795. It also gave a relative viability ([4]; first compound 2.53 µM) of 0.852, a relative viability ([4]; first compound 8 µM) of 0.799 and a relative viability ([1]; first compound 0.08 µM) of 0.471. The relative viability ([1]; first compound 0.253 µM) was 0.618, the relative viability ([1]; first compound 0.8 µM) was 0.481 and the relative viability ([1]; first compound 2.53 µM) was 0.467. It also gave a relative viability ([1]; first compound 8 µM) of 0.332, a relative viability ([2]; first compound 0.08 µM) of 0.451 and a relative viability ([2]; first compound 0.253 µM) of 0.556. The relative viability ([2]; first compound 0.8 µM) was 0.363, the relative viability ([2]; first compound 2.53 µM) was 0.572 and the relative viability ([2]; first compound 8 µM) was 0.389. It also gave a relative viability ([3]; first compound 0.08 µM) of 0.53, a relative viability ([3]; first compound 0.8 µM) of 0.462 and a relative viability ([3]; first compound 2.53 µM) of 0.444. It also gave a relative viability ([3]; first compound 8 µM) of 0.37.

NCI-H2405 gave a relative viability ([4]; first compound 0.08 µM) of 0.683, a relative viability ([4]; first compound 0.253 µM) of 0.752 and a relative viability ([4]; first compound 0.8 µM) of 0.695. For the same cell line, the relative viability ([4]; first compound 2.53 µM) was 0.719, the relative viability ([4]; first compound 8 µM) was 0.653 and the relative viability ([1]; first compound 0.08 µM) was 1.13. It also gave a relative viability ([1]; first compound 0.253 µM) of 1.04, a relative viability ([1]; first compound 0.8 µM) of 0.965 and a relative viability ([1]; first compound 2.53 µM) of 1.01. The relative viability ([1]; first compound 8 µM) was 0.932, the relative viability ([2]; first compound 0.08 µM) was 0.205 and the relative viability ([2]; first compound 0.253 µM) was 0.198. The relative viability ([2]; first compound 0.8 µM) was 0.202, the relative viability ([2]; first compound 2.53 µM) was 0.21 and the relative viability ([2]; first compound 8 µM) was 0.184. The relative viability ([3]; first compound 0.08 µM) was 1, the relative viability ([3]; first compound 0.8 µM) was 1.07 and the relative viability ([3]; first compound 2.53 µM) was 1. The relative viability ([3]; first compound 8 µM) was 0.514.

In the case of NCI-H2023, the relative viability ([4]; first compound 0.08 µM) is reported as 0.232, the relative viability ([4]; first compound 0.253 µM) is reported as 0.193 and the relative viability ([4]; first compound 0.8 µM) is reported as 0.199. The relative viability ([4]; first compound 2.53 µM) was 0.206, the relative viability ([4]; first compound 8 µM) was 0.225 and the relative viability ([1]; first compound 0.08 µM) was 0.627. For the same cell line, the relative viability ([1]; first compound 0.253 µM) was 0.769, the relative viability ([1]; first compound 0.8 µM) was 0.517 and the relative viability ([1]; first compound 2.53 µM) was 0.689. For the same cell line, the relative viability ([1]; first compound 8 µM) was 0.571, the relative viability ([2]; first compound 0.08 µM) was 0.506 and the relative viability ([2]; first compound 0.253 µM) was 0.614. For the same cell line, the relative viability ([2]; first compound 0.8 µM) was 0.457, the relative viability ([2]; first compound 2.53 µM) was 0.472 and the relative viability ([2]; first compound 8 µM) was 0.493. The relative viability ([3]; first compound 0.08 µM) was 0.572, the relative viability ([3]; first compound 0.8 µM) was 0.648 and the relative viability ([3]; first compound 2.53 µM) was 0.732. It also gave a relative viability ([3]; first compound 8 µM) of 0.363.

HCC-15 was tested, and the relative viability ([4]; first compound 0.08 µM) was 0.612, the relative viability ([4]; first compound 0.253 µM) was 0.624 and the relative viability ([4]; first compound 0.8 µM) was 0.491. It also gave a relative viability ([4]; first compound 2.53 µM) of 0.576, a relative viability ([4]; first compound 8 µM) of 0.575 and a relative viability ([1]; first compound 0.08 µM) of 0.805. The relative viability ([1]; first compound 0.253 µM) was 0.859, the relative viability ([1]; first compound 0.8 µM) was 0.834 and the relative viability ([1]; first compound 2.53 µM) was 0.83. It also gave a relative viability ([1]; first compound 8 µM) of 0.692, a relative viability ([2]; first compound 0.08 µM) of 0.57 and a relative viability ([2]; first compound 0.253 µM) of 0.487. For the same cell line, the relative viability ([2]; first compound 0.8 µM) was 0.489, the relative viability ([2]; first compound 2.53 µM) was 0.492 and the relative viability ([2]; first compound 8 µM) was 0.368. The relative viability ([3]; first compound 0.08 µM) was 0.839, the relative viability ([3]; first compound 0.8 µM) was 0.825 and the relative viability ([3]; first compound 2.53 µM) was 0.728. For the same cell line, the relative viability ([3]; first compound 8 µM) was 0.587.

HCC-44 was tested, and the relative viability ([4]; first compound 0.08 µM) was 0.98, the relative viability ([4]; first compound 0.253 µM) was 0.907 and the relative viability ([4]; first compound 0.8 µM) was 0.939. For the same cell line, the relative viability ([4]; first compound 2.53 µM) was 0.995, the relative viability ([4]; first compound 8 µM) was 0.916 and the relative viability ([1]; first compound 0.08 µM) was 1.2. It also gave a relative viability ([1]; first compound 0.253 µM) of 1.09, a relative viability ([1]; first compound 0.8 µM) of 1.13 and a relative viability ([1]; first compound 2.53 µM) of 1.11. The relative viability ([1]; first compound 8 µM) was 1.12, the relative viability ([3]; first compound 0.08 µM) was 1.12 and the relative viability ([3]; first compound 0.8 µM) was 1.1. It also gave a relative viability ([3]; first compound 2.53 µM) of 1.13 and a relative viability ([3]; first compound 8 µM) of 1.04.
